Read-outs that look alike come from different tables or passages of the source.

In one data set the test system is HepG2. As to the kind of experiment: Viability of HCC cell line HepG2. It is filed as cell-based, human.
A further data set has as its system Huh7. As to the kind of experiment: Viability of HCC cell line Huh7. It counts as cell-based, human.
The next data set has as its system Hep3B. As to the kind of experiment: Viability of HCC cell line Hep3B. It counts as cell-based, human.
For a further data set, the system named is Hep40. Kind of data set: Viability of HCC cell line Hep40. It counts as cell-based, human. Conditions: read-out: IC50 in HCC cell lines, Hep40.
The subject of the next data set is PLC/PRF/5. As to the kind of experiment: Viability of HCC cell line PLC/PRF/5. It is filed as cell-based, human.
For the next data set, the system named is SNU-398. Kind of data set: Viability of HCC cell line SNU-398. It is filed as cell-based, human.
In the next data set the test system is SNU-449. Kind of data set: Viability of HCC cell line SNU-449. It is filed as cell-based, human.
Another data set has as its system SNU-182. As to the kind of experiment: Viability of HCC cell line SNU-182. It counts as cell-based, human.
A further data set relates to SNU-475. Kind of data set: Viability of HCC cell line SNU-475. It counts as cell-based, human.
Another data set deals with SNU-423. As to the kind of experiment: Viability of HCC cell line SNU-423. It is filed as cell-based, human.
Data set [1] has as its system control shRNA and CDC37 shRNA stable transfected HepG2. Kind of data set: Cell viability of control shRNA and CDC37 shRNA HepG2. Conditions: 6 days of treatment. It is filed as cell-based, human.
Data set [2] has as its system control shRNA and CDC37 shRNA stable transfected Huh7. Kind of data set: Cell viability of control shRNA and CDC37 shRNA Huh7. It counts as cell-based, human. Conditions: 6 days of treatment.
The test system of data set [3] is control shRNA and CDC37 shRNA stable transfected Hep3B. As to the kind of experiment: Cell viability of control shRNA and CDC37 shRNA Hep3B. It counts as cell-based, human. Conditions: 6 days of treatment.
In data set [4] the test system is HepG2 and Huh7 cells. As to the kind of experiment: In vitro anti-proliferation assay combined with sorafenib. It is filed as cell-based, human. Conditions: added at its IC30 or IC50 to a range of sorafenib concentrations.
Data set [5] relates to genetically induced liver tumors. Kind of data set: Primary HCC mouse model. It counts as in vivo. Conditions: 1500 p.p.m in food, 12 weeks; for number of tumor nodules in the livers: vs control food.
Data set [6] relates to orthotopic PDX from HCC patients (HCC-1, HCC-2, HCC-3). Kind of data set: Orthotopic HCC PDX models, drug in food. It counts as in vivo, mouse. Conditions: for PDX tumor growth (bioluminescence signals and tumor volumes): 1,500 p.p.m mixed in food, oral, vs regular chow.
The next data set deals with HSP90/CDC37 complex (Homo sapiens, UniProt Q16543). It is filed as biochemical. Conditions: purified recombinant HSP90 and CDC37, ELISA and co-IP. (In an ELISA, binding on a coated surface is turned into a signal by an enzyme label.)
The target of data set [7] is T1, CDC37 (Homo sapiens, UniProt Q16543).
T1 sequence (Q16543 1-378): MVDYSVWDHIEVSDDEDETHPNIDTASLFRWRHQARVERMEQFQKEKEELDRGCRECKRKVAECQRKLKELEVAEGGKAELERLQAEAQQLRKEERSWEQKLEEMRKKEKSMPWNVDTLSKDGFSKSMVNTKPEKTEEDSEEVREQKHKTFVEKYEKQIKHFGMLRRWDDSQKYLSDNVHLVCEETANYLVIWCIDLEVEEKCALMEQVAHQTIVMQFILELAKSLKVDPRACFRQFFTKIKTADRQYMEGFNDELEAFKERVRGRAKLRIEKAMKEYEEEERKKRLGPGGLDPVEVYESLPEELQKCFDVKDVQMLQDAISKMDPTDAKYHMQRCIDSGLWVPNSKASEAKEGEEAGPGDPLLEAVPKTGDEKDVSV
Kind of data set: Thermal Shift Assay. It counts as binding. Conditions: DMSO control 52.3 °C.

Data set [8] deals with HSP70 and HSP27 expression. As to the kind of experiment: Western blot for heat shock response. It is filed as cell-based. Conditions: treated cell lines.
Data set [9] has as its system Wnt/β-catenin, Stat3, AKT/mTOR, and EGFR/Ras/Raf pathway proteins. Kind of data set: Western blotting of signaling proteins in PDX. It is filed as in vivo, mouse. Conditions: NEN 1,500 p.p.m in food. A general note: A western blot detects proteins with antibodies after separation by electrophoresis.
The conditions of data set [10]: single oral dose 40 mg/Kg, mice bearing PDX, compared with niclosamide.
For data set [11] the following is noted: cited from earlier work.
For data set [12] the following is noted: cited from earlier work. This is another data set of the same source.
In data set [13] the test system is HepG2 and Huh7 cells. It is filed as cell-based, human. Conditions: read-out: IC50, proliferation of HepG2 and Huh7 cells.
In data set [14] the test system is primary hepatocytes Hu8216. As to the kind of experiment: Viability of primary hepatocytes Hu8216. It is filed as cell-based. Conditions: Homo sapiens, Hepatocyte, read-out: IC50 in primary hepatocytes, Hu8216.
Data set [15] concerns primary hepatocytes Hu1748. As to the kind of experiment: Viability of primary hepatocytes Hu1748. It is filed as cell-based. Conditions: Homo sapiens, Hepatocyte, read-out: IC50 in primary hepatocytes, Hu1748.
In another data set the test system is PDX-HCC-2. As to the kind of experiment: PDX. It is filed as in vivo, mouse. Conditions: PDX HCC-2, sorafenib 50 mg/Kg, NEN 200 mg/Kg or niclosamide 400 mg/Kg, daily oral gavage, four weeks.
The target in data set [16] is T1, CDC37. As to the kind of experiment: Pull-down assay with niclosamide-conjugated sepharose beads. It is filed as binding. Conditions: niclosamide conjugated to epoxy-activated sepharose beads.

As for `NCCO.O=C(Nc1ccc([N+](=O)[O-])cc1Cl)c1cc(Cl)ccc1O` [NEN, niclosamide ethanolamine], in the data set on HepG2 (HepG2), the “IC30, HepG2” value was found to be 400 nM. The IC50 is 460 nM in the data set on HepG2 (read-out: IC50 in HCC cell lines, HepG2, viability, HepG2); 630 nM in the data set on Huh7 (read-out: IC50 in HCC cell lines, Huh7, viability, Huh7); 170 nM with Hep3B (read-out: IC50 in HCC cell lines, Hep3B, viability); 740 nM in the data set on Hep40 (viability, Hep40); 530 nM in the data set on PLC/PRF/5 (read-out: IC50 in HCC cell lines, PLC/PRF/5, viability, PLC/PRF/5); 200 nM with SNU-398 (read-out: IC50 in HCC cell lines, SNU-398, viability, SNU-398). Besides, the IC50 in the data set on SNU-449 (read-out: IC50 in HCC cell lines, SNU-449, viability, SNU-449) was 530 nM; with SNU-182 (read-out: IC50 in HCC cell lines, SNU-182, viability, SNU-182) it was 340 nM; in the data set with SNU-475 (read-out: IC50 in HCC cell lines, SNU-475, viability, SNU-475) it was 350 nM; with SNU-423 (read-out: IC50 in HCC cell lines, SNU-423, viability, SNU-423), 260 nM; in data set [1] (read-out: IC50, CDC37 knockdown HepG2, CDC37 shRNA) it was 610 nM; in data set [1] (read-out: IC50, mock transfected (control shRNA) HepG2, control shRNA), 350 nM. For the same molecule, the IC50 in data set [2] (read-out: IC50, CDC37 knockdown Huh7, CDC37 shRNA) was determined as 930 nM; in data set [2] (read-out: IC50, mock transfected (control shRNA) Huh7, control shRNA) it was 610 nM; in [3] (read-out: IC50, CDC37 knockdown Hep3B, CDC37 shRNA), 520 nM; in [3] (read-out: IC50, mock transfected (control shRNA) Hep3B, control shRNA) it was 160 nM. For the same molecule, the “IC30, Huh7” value with Huh7 (Huh7) is 500 nM. The “effect on IC50 of sorafenib in HCC cells” value in the data set on HepG2 and Huh7 cells [4] is “reduced their IC50 values to sorafenib”. Besides, in data set [5] (vs control and niclosamide groups), the “weight of whole livers (liver plus tumor nodules)” value is “significantly reduced liver weight”. Also, the “number of tumor nodules in the livers” value in data set [5] is “visibly reduced the number of tumor nodules”. In [6], the “PDX tumor growth (bioluminescence signals and tumor volumes)” value is recorded as “significantly decreased PDX growth”. Also, the body weight changes result in data set [6] (end of treatment period, treated vs control groups) is listed as “no significant body weight changes”. The “effect on HSP90/CDC37 interaction” value on HSP90/CDC37 complex is “inhibited the HSP90/CDC37 interaction”. In addition, the “average Tm value of CDC37” value amounted to 54.97 °C at CDC37 [7] (25 μM) and 56.03 °C on CDC37 [7] (50 μM). Besides, the “heat shock response (HSP70 and HSP27 induction)” value in data set [8] is recorded as “did not induce the classical heat shock response”. In addition, the “expression levels of signaling pathway proteins” value in data set [9] is “decreased expression levels of proteins involved in multiple signaling pathways”. Also, in [10], the plasma levels entry is reported as “similarly higher”. Further, the water solubility result in [11] is “improved water solubility”. Besides, in data set [12], the systemic bioavailability result is “improved water solubility and systemic bioavailability over niclosamide”.

As for `NCCO` [ethanolamine], the entries for the “average Tm value of CDC37” value at CDC37 [7] (25 μM) and at CDC37 [7] (50 μM) were 52.93 °C and 53.2 °C, respectively.

For the molecule `COC(=O)Nc1nc2ccc(C(=O)c3ccccc3)cc2[nH]1` [mebendazole], the IC50 in the data set on HepG2 and Huh7 cells [13] (Homo sapiens) fell in the range of 380 to 1650 nM.

For `O=C(Nc1ccc([N+](=O)[O-])cc1Cl)c1cc(Cl)ccc1O` [niclosamide], the IC50 in the data set with HepG2 (Homo sapiens, HepG2, read-out: IC50 in HCC cell lines, HepG2) was 850 nM; in the data set with Huh7 (Homo sapiens, Huh-7, read-out: IC50 in HCC cell lines, Huh7), 740 nM; in the data set with Hep3B (Homo sapiens, read-out: IC50 in HCC cell lines, Hep3B), 200 nM; in the data set on Hep40 (Homo sapiens), 810 nM; with PLC/PRF/5 (Homo sapiens, PLC-PRF-5, read-out: IC50 in HCC cell lines, PLC/PRF/5), 770 nM; in the data set with SNU-398 (Homo sapiens, SNU-398, read-out: IC50 in HCC cell lines, SNU-398), 240 nM. In addition, the IC50 with SNU-449 (Homo sapiens, SNU-449, read-out: IC50 in HCC cell lines, SNU-449) stood at 670 nM; with SNU-182 (Homo sapiens, SNU-182, read-out: IC50 in HCC cell lines, SNU-182), 360 nM; with SNU-475 (Homo sapiens, SNU-475, read-out: IC50 in HCC cell lines, SNU-475), 400 nM; in the data set with SNU-423 (Homo sapiens, SNU-423, read-out: IC50 in HCC cell lines, SNU-423), 320 nM; in data set [14] it was 4310 nM; in data set [15] it was 3640 nM. Also, the IC50 in the data set on HepG2 and Huh7 cells [13] (Homo sapiens) fell in the range of 650 to 1770 nM. In addition, the “number of tumor nodules in the livers” value in data set [5] was “much lesser effect than NEN”. Besides, in data set [6], the “PDX tumor growth (bioluminescence signals and tumor volumes)” value is recorded as “did not produce any significant effects on tumor growth”. In addition, the tumor volume result with PDX-HCC-2 is “did not decrease tumor volume”. In addition, the “pull-down of CDC37” value at CDC37 [16] is listed as “pulled down CDC37”. Also, the systemic bioavailability entry in [12] (in vivo) is given as “very limited systemic bioavailability”.

For ivermectin, the IC50 in the data set on HepG2 and Huh7 cells [13] (range over HepG2 and Huh7, Supplemental Figure 8) was over 10000 nM.

The values are drawn from paper PMC5447464 (Gastroenterology, 2017).
